Tested on: B16 cells gene expression
Experiment: RNA-Seq (DEGs, GSEA, heatmaps) of B16 cells
Settings: KTC1101 0.2μM, B16 cells, GSEA KEGG

SMILES: COc1cc(N)cc2c1nc(C(F)F)n2-c1nc(N2CCCOCC2)nc(N2CCOCC2)n1 [KTC1101, 2-(difluoromethyl)-4-methoxy-1-(4-morpholino-6-(1,4-oxazepan-4-yl)-1,3,5-triazin-2-yl)-1H-benzo[d]imidazol-6-amine]
- NES, mmu04970 Salivary secretion: 1.144
- NES, mmu04972 Pancreatic secretion: 0.9417
- NES, mmu05017 Spinocerebellar ataxia: -1.093
- NES, mmu05031 Amphetamine addiction: 1.031
- NES, mmu05034 Alcoholism: 0.984
- NES, mmu05100 Bacterial invasion of epithelial cells: 0.6338
- NES, mmu05132 Salmonella infection: -1.08
- NES, mmu05133 Pertussis: 0.6182
- NES, mmu05134 Legionellosis: 1.026
- NES, mmu05135 Yersinia infection: 0.5197
- NES, mmu05145 Toxoplasmosis: 1.047
- NES, mmu05160 Hepatitis C: -0.848
- NES, mmu05162 Measles: 1.0518
- NES, mmu05165 Human papillomavirus infection: 0.8359
- NES, mmu05170 Human immunodeficiency virus 1 infection: 0.8557
- NES, mmu05200 Pathways in cancer: 1.059
- NES, mmu05203 Viral carcinogenesis: 0.855
- NES, mmu05204 Chemical carcinogenesis - DNA adducts: -1.166
- NES, mmu05206 MicroRNAs in cancer: 1.025
- NES, mmu05207 Chemical carcinogenesis - receptor activation: 0.9371
- NES, mmu05210 Colorectal cancer: 0.7382
- NES, mmu05211 Renal cell carcinoma: -0.9675
- NES, mmu05212 Pancreatic cancer: -0.9022
- NES, mmu05213 Endometrial cancer: -1.003
- NES, mmu05214 Glioma: 0.9787
- NES, mmu05216 Thyroid cancer: 0.6447
- NES, mmu05218 Melanoma: 1.185
- NES, mmu05219 Bladder cancer: 0.8356
- NES, mmu05220 Chronic myeloid leukemia: 0.9551
- NES, mmu05223 Non-small cell lung cancer: -0.8178
- NES, mmu05231 Choline metabolism in cancer: 1.119
- NES, mmu05235 PD-L1 expression and PD-1 checkpoint pathway in cancer: 0.9645
- NES, mmu05412 Arrhythmogenic right ventricular cardiomyopathy: 1.0322
- NES, mmu05416 Viral myocarditis: 0.9628
- NES, mmu05417 Lipid and atherosclerosis: 1.128
- enrichmentScore, mmu00071 Fatty acid degradation: 0.2512
- enrichmentScore, mmu00310 Lysine degradation: -0.1985
- enrichmentScore, mmu00380 Tryptophan metabolism: 0.4505
- enrichmentScore, mmu00500 Starch and sucrose metabolism: -0.3977
- enrichmentScore, mmu00510 N-Glycan biosynthesis: -0.1868
- enrichmentScore, mmu00513 Various types of N-glycan biosynthesis: 0.3555
- enrichmentScore, mmu00514 Other types of O-glycan biosynthesis: 0.426
- enrichmentScore, mmu00562 Inositol phosphate metabolism: -0.271
- enrichmentScore, mmu00564 Glycerophospholipid metabolism: -0.1904
- enrichmentScore, mmu00600 Sphingolipid metabolism: -0.2721
- enrichmentScore, mmu00860 Porphyrin metabolism: -0.354
- enrichmentScore, mmu00980 Metabolism of xenobiotics by cytochrome P450: -0.3932
- enrichmentScore, mmu00982 Drug metabolism - cytochrome P450: -0.394
- enrichmentScore, mmu01250 Biosynthesis of nucleotide sugars: -0.3381
- enrichmentScore, mmu01522 Endocrine resistance: 0.2781
- enrichmentScore, mmu01523 Antifolate resistance: -0.26
- enrichmentScore, mmu02010 ABC transporters: -0.2376
- enrichmentScore, mmu03008 Ribosome biogenesis in eukaryotes: 0.1194
- enrichmentScore, mmu03015 mRNA surveillance pathway: -0.1312
- enrichmentScore, mmu03018 RNA degradation: -0.2392
- enrichmentScore, mmu03022 Basal transcription factors: -0.1746
- enrichmentScore, mmu03040 Spliceosome: -0.1926
- enrichmentScore, mmu03060 Protein export: -0.3667
- enrichmentScore, mmu03082 ATP-dependent chromatin remodeling: 0.1455
- enrichmentScore, mmu03083 Polycomb repressive complex: 0.08375
- enrichmentScore, mmu03250 Viral life cycle - HIV-1: -0.1606
- enrichmentScore, mmu03410 Base excision repair: 0.1698
- enrichmentScore, mmu03420 Nucleotide excision repair: -0.1542
- enrichmentScore, mmu03430 Mismatch repair: -0.1664
- enrichmentScore, mmu03460 Fanconi anemia pathway: -0.2915
- enrichmentScore, mmu04014 Ras signaling pathway: -0.2302
- enrichmentScore, mmu04068 FoxO signaling pathway: 0.2292
- enrichmentScore, mmu04070 Phosphatidylinositol signaling system: -0.1821
- enrichmentScore, mmu04071 Sphingolipid signaling pathway: -0.1806
- enrichmentScore, mmu04115 p53 signaling pathway: 0.2436
- enrichmentScore, mmu04120 Ubiquitin mediated proteolysis: -0.1841
- enrichmentScore, mmu04130 SNARE interactions in vesicular transport: -0.1753
- enrichmentScore, mmu04136 Autophagy - other: 0.2123
- enrichmentScore, mmu04137 Mitophagy - animal: -0.2835
- enrichmentScore, mmu04140 Autophagy - animal: -0.2
- enrichmentScore, mmu04144 Endocytosis: 0.1533
- enrichmentScore, mmu04146 Peroxisome: 0.2695
- enrichmentScore, mmu04148 Efferocytosis: 0.2467
- enrichmentScore, mmu04150 mTOR signaling pathway: -0.2361
- enrichmentScore, mmu04152 AMPK signaling pathway: -0.2382
- enrichmentScore, mmu04210 Apoptosis: 0.1949

— PMC10938783, “A novel pan-PI3K inhibitor KTC1101 synergizes with anti-PD-1 therapy by targeting tumor suppression and immune activation” (Molecular Cancer, 2024)
